{
  "source": "patent US9185897B2",
  "about": "“Methods to deliver and maintain volatile compounds” (AUBURN UNIVERSITY, priority 2010, dated 2015)",
  "assay": "Release rate of a volatile compound from a model manually replenished system (mass loss of vials through a mass-regulating barrier)",
  "type": "physicochemical",
  "conditions": "low-density polyethylene barrier, 0.004 inch-thick; air about 1.4 m/s; substantially constant over 133 days in the laboratory (FIG. 5)",
  "experimental": "Experimental release rates of a volatile compound from a model manually replenished system were measured as a function of time. Glass screw-thread sample vials with PTFE/silicone septa and open-top polypropylene caps contained the volatile liquid compound. Two different sizes of vials were employed: small 8 mL capacity (17 mm O.D. and 63 mm height) and large 40 mL capacity (28 mm O.D. and 98 mm height). The test volatile compound selected for study was dimethyldisulfide (DMDS). Duplicate samples of 5.5 mL and 30 mL of DMDS were added to the small and large vials, respectively. Then a mass-regulating barrier was placed on the top of each vial, and the open-top cap was tightly screwed to seal the vial contents. The diameters of the mass-regulating barriers for the small and large vials were 13.4 and 22.0 mm, respectively. In addition, the diameters of the openings in the caps for the small and large vials were 8.78 mm and 14.62 mm, respectively. Each vial with barrier, cap and liquid contents was then immediately weighed on an analytical balance. Next, the vials were placed in a dedicated laboratory fume hood. Ambient air with a bulk velocity of about 1.4 m/s (or 3 mph) passed over the vials. […] From these primary measurements the release rate for each […] was determined as a function of time. […]",
  "data": [
    {"smiles": "CSSC", "note": "[DMDS, dimethyldisulfide]", "values": [
      {"measurement": "release rate", "value": 26, "unit": "mg/day"}
    ]}
  ]
}
